# How the values were obtained:
# [1] = tested on: cat brain after right middle cerebral artery (MCA) occlusion; assay: DyDTPA-BMA-enhanced T2-weighted spin-echo MRI of cerebral perfusion deficit after MCA occlusion; type: in vivo; conditions: for signal difference between ischemic and contralateral control tissue: mean ± S.E.M.
# Protocol: Young adult cats weighing 2.0 to 4.5 kg were anaesthetized with 30 mg/kg i.v. Nembutal. Polyethylene catheters were placed in the femoral artery and vein for blood pressure monitoring and drug administration. The right middle cerebral artery (MCA) was isolated via the transorbital approach and occluded just proximal to the origin of the lateral striate arteries with bipolar electrocautery followed by complete surgical transection. The dural incision and orbit were covered with saline moistened gauze and absorbable gelatin sponge.
# A General Electric CSI (2 Tesla) unit, equipped with Acustar S-150 self-shielded gradient coils (+20 gauss/cm, 15 cm bore size) was used. MRI was performed with an 8.5 cm inner-diameter low-pass birdcage proton imaging coil. Successive multislice T2-weighted coronal images were obtained for up to 12 hours following occlusion. Spin-echo T2-weighted images (TR 2800, TE 80 and 160, 3 mm slices, 1 mm gap) were obtained with a field-of-view (FOV) of 80 mm in which two scans were averaged for each one of the 128 phase-encoding steps resulting in a total acquisition time of 12 minutes.
# In order to evaluate the anatomic region of perfusion deficiency following MCA occlusion, cats were injected with a non-ionic T2*-shortening contrast agent, DyDTPA-BMA. The DyDTPA-BMA complex was prepared by refluxing an aqueous suspension containing stoichiometric amounts of dysprosium oxide and DTPA-BMA. The contrast agent was infused i.v. at doses of 0.25, 0.5 or 1.0 mmol/kg beginning at phase-encoding step #32 and finishing at step #60 (approximately 3 min) of T2-weighted image acquisition. DyDTPA-BMA injections were given at different time points post MCA occlusion in individual cats. After injection, the magnetic susceptibility effect was quantified for up to 60 minutes in both ischemic and normal hemispheres by comparing region-of-interest (ROI) intensity to pre-contrast T2-weighted ROI intensities. […] A signal intensity ratio was calculated as the ROI image intensity ratio of an abnormal, ischemic region over that of the normal, contralateral side. Results were expressed as the mean percentage change ±Standard Error of the Mean (X±S.E.M.)
# At the conclusion of the MR protocol, 15 ml/kg of a 2% solution of 2,3,5-triphenyl tetrazolium chloride (TTC) was infused transcardially. The brain was removed from the cranium after 10–20 minutes, immersed in a 2% TTC solution for another 10–20 minutes, and then stored overnight in 10% buffered formalin in a light shielded container. The brain was sectioned coronally (2–3 mm slices) from 24–36 hours later and immediately examined for histologic evidence of ischemic damage as evidenced by pallor of TTC-staining.
# mice = assay: LD50 i.v. administration in mice; type: in vivo
structure (smiles),measurement,setting,value
CNC(=O)CN(CCN(CCN(CC(=O)[O-])CC(=O)NC)CC(=O)[O-])CC(=O)[O-].[Dy+3] [DyDTPA-BMA],Onset of signal hypertensity (relative to pre-contrast T2-weighted image): Earlier (number of cats),"[1]; 0.25 mmol/kg, 5 cats tested",1
same,Onset of signal hypertensity (relative to pre-contrast T2-weighted image): Later (number of cats),"[1]; 0.25 mmol/kg, 5 cats tested",0
same,Onset of signal hypertensity (relative to pre-contrast T2-weighted image): Same Time (number of cats),"[1]; 0.25 mmol/kg, 5 cats tested",4
same,Signal intensity ratio of injured to contralateral control tissue (relative to pre-contrast T2 weighted image): Better (number of injections),"[1]; 0.25 mmol/kg, 5 injections",4
same,Signal intensity ratio of injured to contralateral control tissue (relative to pre-contrast T2 weighted image): Same (number of injections),"[1]; 0.25 mmol/kg, 5 injections",1
same,Signal intensity ratio of injured to contralateral control tissue (relative to pre-contrast T2 weighted image): Worse (number of injections),"[1]; 0.25 mmol/kg, 5 injections",0
same,maximum signal intensity losses,"[1]; 0.5 mmol/kg i.v., gray matter of normal non-occluded cerebral hemisphere, first 15 minutes after injection",35%
same,Onset of signal hypertensity (relative to pre-contrast T2-weighted image): Earlier (number of cats),"[1]; 0.50 mmol/kg, 16 cats tested",12
same,Onset of signal hypertensity (relative to pre-contrast T2-weighted image): Later (number of cats),"[1]; 0.50 mmol/kg, 16 cats tested",0
same,Onset of signal hypertensity (relative to pre-contrast T2-weighted image): Same Time (number of cats),"[1]; 0.50 mmol/kg, 16 cats tested",4
same,Signal intensity ratio of injured to contralateral control tissue (relative to pre-contrast T2 weighted image): Better (number of injections),"[1]; 0.50 mmol/kg, 23 injections",17
same,Signal intensity ratio of injured to contralateral control tissue (relative to pre-contrast T2 weighted image): Same (number of injections),"[1]; 0.50 mmol/kg, 23 injections",6
same,Signal intensity ratio of injured to contralateral control tissue (relative to pre-contrast T2 weighted image): Worse (number of injections),"[1]; 0.50 mmol/kg, 23 injections",0
same,Onset of signal hypertensity (relative to pre-contrast T2-weighted image): Earlier (number of cats),"[1]; 1.0 mmol/kg, 6 cats tested",4
same,Onset of signal hypertensity (relative to pre-contrast T2-weighted image): Later (number of cats),"[1]; 1.0 mmol/kg, 6 cats tested",0
same,Onset of signal hypertensity (relative to pre-contrast T2-weighted image): Same Time (number of cats),"[1]; 1.0 mmol/kg, 6 cats tested",2
same,Signal intensity ratio of injured to contralateral control tissue (relative to pre-contrast T2 weighted image): Better (number of injections),"[1]; 1.0 mmol/kg, 16 injections",14
same,Signal intensity ratio of injured to contralateral control tissue (relative to pre-contrast T2 weighted image): Same (number of injections),"[1]; 1.0 mmol/kg, 16 injections",2
same,Signal intensity ratio of injured to contralateral control tissue (relative to pre-contrast T2 weighted image): Worse (number of injections),"[1]; 1.0 mmol/kg, 16 injections",0
same,"signal intensity recovery, of pre-contrast control values","[1]; 45 minutes after administration, all cerebral tissues",at least 90%
same,signal difference between ischemic and contralateral control tissue,[1]; basal ganglia,26±8%
same,time post-occlusion at which relative hyperintensity was found in occluded basal ganglia (as early as),[1]; both 1 mmol/kg and 0.5 mmol/kg dosages,30 min
same,difference in immediate post-contrast signal intensity on increasing dosage,[1]; dosage increased from 0.5 to 1.0 mmol/kg,only a minimal difference
same,signal difference between ischemic and contralateral control tissue,[1]; gray matter in the inferior parietal gyrus,42±14%
same,signal difference between ischemic and contralateral control tissue,[1]; white matter in the internal capsule,5±4%
same,LD50,mice,34 mmol/kg

# Reference: US6994841B1, “Relating to magnetic resonance imaging” (Kucharczyk and Moseley Partners, priority 1990, dated 2006)
